# Laboratory results from US9707305B2, “Formulas for diagnosing and treating hormone-dependent cancers and cancers of the organs responsible for steroid hormone synthesis” (Commissariat à l'énergie atomique et aux énergies …, priority 2011, dated 2017).
# Test: Biodistribution of the nano-emulsion of Example 1.1 (radioactivity and fluorescence per organ)
# Format: in vivo
# Procedure: In the following examples, the radioactivity was counted with the TRiCarb Counter (Ref: Packard, Liquid Scintillation Analyzers; Models 2200CA).
# Fluobeam 700 (Fluoptics) is the apparatus with which the whole of the organs from the biodistribution were analyzed in fluorescence as well as the one with which the biodistribution kinetics of the nano-emulsions were established in vivo. This imaging system allows viewing of the fluorescence in spectral bands from 700 to 850 nm for a 650 nm excitation. The apparatus consists of an electric case containing the laser of class 3B, its power supply and an optical head containing the CCD camera.
# The nano-emulsions of Example 1 were injected into FVB female and male mice. As a comparison, a mixture of three tracers ([3H]CHE, [14C]CO and DiD) (not formulated as a nano-emulsion) was injected in order to observe the distribution of the tracers in the absence of droplets being used as a distribution carrier.
# Tables 6 to 14 provide the biodistribution results of each tracer ([3H]CHE, [14C]CO and DiD) expressed as a percentage of the dose injected per gram of tissue (or [3H]CHE and [14C]CO) or as fluorescence intensity (for DiD) depending on the organ of the mouse, 15 minutes (Table 6), 2 hours (Table 7), 4 hours (Table 8), 6 hours (Table 9), 16 hours (Table 10), 24 hours (Table 11), 72 hours (Table 12), 120 hours (Table 13) and 168 hours (Table 14), after injection into an FVB female mouse of the nano-emulsion of Example 1.1. (nano-emulsion according to the invention comprising the three tracers ([3H]CHE, [14C]CO and DiD).
# [1] = 15 min after injection of nano-emulsion of Example 1.1, FVB female mouse
# [2] = 2 h after injection of nano-emulsion of Example 1.1, FVB female mouse
# [3] = 4 h after injection of nano-emulsion of Example 1.1, FVB female mouse
# [4] = 16 h (Table 9 head) after injection of nano-emulsion of Example 1.1, FVB female mouse
# [5] = 24 h (Table 10 head) after injection of nano-emulsion of Example 1.1, FVB female mouse
compound,measurement,setting,value
"CCCCCCCCCCCCCCCCO[C@H]1CC[C@@]2(C)C(=CC[C@H]3[C@@H]4CC[C@H]([C@H](C)CCCC(C)C)[C@@]4(C)CC[C@@H]32)C1 [[3H]CHE, cholesteryl hexadecylether]","biodistribution, Adrenal glands (MEAN)",[1],10.60 % of injected dose per gram of
same,"biodistribution, Brain (MEAN)",[1],0.476 % of injected dose per gram of
same,"biodistribution, Fat (MEAN)",[1],1.10 % of injected dose per gram of
same,"biodistribution, Heart (MEAN)",[1],8.303 % of injected dose per gram of
same,"biodistribution, Intestine (MEAN)",[1],1.71 % of injected dose per gram of
same,"biodistribution, Kidney (MEAN)",[1],4.09 % of injected dose per gram of
same,"biodistribution, Liver (MEAN)",[1],8.26 % of injected dose per gram of
same,"biodistribution, Lung (MEAN)",[1],3.91 % of injected dose per gram of
same,"biodistribution, Muscle (MEAN)",[1],0.675 % of injected dose per gram of
same,"biodistribution, Ovary (MEAN)",[1],5.38 % of injected dose per gram of
same,"biodistribution, Pancreas (MEAN)",[1],1.233 % of injected dose per gram of
same,"biodistribution, Salivary glands (MEAN)",[1],1.157 % of injected dose per gram of
same,"biodistribution, Spleen (MEAN)",[1],3.63 % of injected dose per gram of
same,"biodistribution, Uterus (MEAN)",[1],0.90 % of injected dose per gram of
same,"biodistribution, Adrenal glands (MEAN)",[2],21.12 % of injected dose per gram of
same,"biodistribution, Brain (MEAN)",[2],0.26 % of injected dose per gram of
same,"biodistribution, Fat (MEAN)",[2],0.76 % of injected dose per gram of
same,"biodistribution, Heart (MEAN)",[2],4.64 % of injected dose per gram of
same,"biodistribution, Intestine (MEAN)",[2],2.44 % of injected dose per gram of
same,"biodistribution, Kidneys (MEAN)",[2],3.83 % of injected dose per gram of
same,"biodistribution, Liver (MEAN)",[2],31.09 % of injected dose per gram of
same,"biodistribution, Lung (MEAN)",[2],4.44 % of injected dose per gram of
same,"biodistribution, Muscle (MEAN)",[2],0.45 % of injected dose per gram of
same,"biodistribution, Ovary (MEAN)",[2],29.28 % of injected dose per gram of
same,"biodistribution, Pancreas (MEAN)",[2],1.43 % of injected dose per gram of
same,"biodistribution, Salivary glands (MEAN)",[2],1.42 % of injected dose per gram of
same,"biodistribution, Spleen (MEAN)",[2],5.10 % of injected dose per gram of
same,"biodistribution, Uterus (MEAN)",[2],2.23 % of injected dose per gram of
same,"biodistribution, Adrenal glands (MEAN)",[3],28.13 % of injected dose per gram of
same,"biodistribution, Brain (MEAN)",[3],0.19 % of injected dose per gram of
same,"biodistribution, Fat (MEAN)",[3],1.40 % of injected dose per gram of
same,"biodistribution, Heart (MEAN)",[3],4.94 % of injected dose per gram of
same,"biodistribution, Intestine (MEAN)",[3],2.46 % of injected dose per gram of
same,"biodistribution, Kidney (MEAN)",[3],2.51 % of injected dose per gram of
same,"biodistribution, Liver (MEAN)",[3],37.43 % of injected dose per gram of
same,"biodistribution, Lungs (MEAN)",[3],4.02 % of injected dose per gram of
same,"biodistribution, Muscle (MEAN)",[3],0.41 % of injected dose per gram of
same,"biodistribution, Ovary (MEAN)",[3],39.41 % of injected dose per gram of
same,"biodistribution, Pancreas (MEAN)",[3],1.01 % of injected dose per gram of
same,"biodistribution, Salivary glands (MEAN)",[3],1.09 % of injected dose per gram of
same,"biodistribution, Spleen (MEAN)",[3],5.00 % of injected dose per gram of
same,"biodistribution, Uterus (MEAN)",[3],1.69 % of injected dose per gram of
same,"biodistribution, Adrenal glands (MEAN)",[4],43.16 % of injected dose per gram of
same,"biodistribution, Brain (MEAN)",[4],0.13 % of injected dose per gram of
same,"biodistribution, Fat (MEAN)",[4],1.36 % of injected dose per gram of
same,"biodistribution, Heart (MEAN)",[4],3.49 % of injected dose per gram of
same,"biodistribution, Intestine (MEAN)",[4],4.87 % of injected dose per gram of
same,"biodistribution, Kidney (MEAN)",[4],2.06 % of injected dose per gram of
same,"biodistribution, Liver (MEAN)",[4],47.67 % of injected dose per gram of
same,"biodistribution, Lungs (MEAN)",[4],4.63 % of injected dose per gram of
same,"biodistribution, Muscle (MEAN)",[4],0.76 % of injected dose per gram of
same,"biodistribution, Ovary (MEAN)",[4],52.26 % of injected dose per gram of
same,"biodistribution, Pancreas (MEAN)",[4],1.17 % of injected dose per gram of
same,"biodistribution, Salivary glands (MEAN)",[4],1.27 % of injected dose per gram of
same,"biodistribution, Spleen (MEAN)",[4],7.48 % of injected dose per gram of
same,"biodistribution, Uterus (MEAN)",[4],3.91 % of injected dose per gram of
same,"biodistribution, Adrenal glands (MEAN)",[5],39.68 % of injected dose per gram of
same,"biodistribution, Brain (MEAN)",[5],0.09 % of injected dose per gram of
same,"biodistribution, Fat (MEAN)",[5],0.88 % of injected dose per gram of
same,"biodistribution, Heart (MEAN)",[5],3.53 % of injected dose per gram of
same,"biodistribution, Intestine (MEAN)",[5],2.78 % of injected dose per gram of
same,"biodistribution, Kidney (MEAN)",[5],1.50 % of injected dose per gram of
same,"biodistribution, Liver (MEAN)",[5],48.76 % of injected dose per gram of
